From patent publication US11028075B2, “Therapeutic compounds and methods of use thereof” (GENENTECH, INC., priority 2018, dated 2021)
Where a name gives a salt, the structure may show the parent alone.

Experiments:
hNav1.7 [1] = target: T1, hNav1.7 (Homo sapiens (Human), UniProt Q15858); experiment: Tritiated compound binding to membranes from cells heterologously expressing hNav1.7 and the β1 subunit (Nav1.7 LBA); conditions: competitive binding vs [3H]compound, membranes with hNav1.7 and β1 subunit; read-out: Nav1.7 LBA EVO IC50
Protocol: Example 93A. Tritiated Compound Binding to Membranes Isolated from Cells that Heterologously Express hNav1.7 and the β1 Subunit
Preparation of membranes containing recombinantly expressed sodium channels: Frozen recombinant cell pellets are thawed on ice and diluted to 4 times the cell pellet weight with ice cold 50 mM Tris HCl, pH 7.4 buffer. The cell suspensions are homogenized on ice using a motorized glass dounce homogeniser. Homogenates are further diluted 8.4 times with ice cold 50 mM Tris HCl, pH 7.4 buffer and then centrifuged at 200×g at 4° C. for 15 minutes. The supernatants are collected and centrifuged at 10000×g at 4° C. for 50 min. The pellets are then re-suspended in 100 mM NaCl, 20 mM Tris HCl, pH 7.4 buffer containing 1% v/v protease inhibitors (Calbiochem) and re-homogenized on ice. The homogenized membranes are then processed through a syringe equipped with a 26 gauge needle. Protein concentrations arer determined by Bradford Assay and the membranes are stored at −80° C.
Saturation experiments. A competitive NaV1.7 inhibitor having a methyl group is tritiated. Three tritiums are incorporated in place of methyl hydrogens to generate [^3H]compound. Binding of this radioligand is performed in 5 mL borosilicate glass test tubes at room temperature. Binding is initiated by adding membranes to increasing concentrations of [^3H]compound in 100 mM NaCl, 20 mM Tris HCl, pH 7.4 buffer containing 0.01% w/v bovine serum albumin (BSA) for 18 h. Non-specific binding is determined in the presence of 1 μM unlabeled compound. After 18 h, the reactants are filtered through GF/C glass fiber filters presoaked in 0.5% w/v polyethylene imine. Filters are washed with 15 mL ice cold 100 mM NaCl, 20 mM Tris HCl, pH7.4 buffer containing 0.25% BSA to separate bound from free ligand. [^3H]compound bound to filters is quantified by liquid scintillation counting.
Binding reactions are performed in 96-well polypropylene plates at room temperature for 18 h. In 360 μL, membranes are incubated with […] [^3H]compound and increasing concentrations of Test Compound. Non-specific binding is defined in the presence of 1 μM unlabeled compound. Reactions are transferred and filtered through 96-well glass fiber/C filter plates presoaked with 0.5% polyethylene imine. The filtered reactions are washed 5 times with 200 μL ice cold buffer containing 0.25% BSA. Bound radioactivity is determined by liquid scintillation counting.
Data Analysis: For saturation experiments, non-specific binding is subtracted from total binding to provide specific binding and these values are recalculated in terms of pmol ligand bound per mg protein. Saturation curves are constructed and dissociation constants are calculated using the single site ligand binding model: Beq=(Bmax*X)/(X+Kd), where Beq is the amount of ligand bound at equilibrium, Bmax is the maximum receptor density, Kd is the dissociation constant for the ligand, and X is the free ligand concentration. For competition studies percent inhibition is determined and IC50 values are calculated using a 4 parameter logistic model (% inhibition=(A+((B−A)/(1+((x/C)^D)))) using XLfit, where A and B are the maximal and minimum inhibition respectively, C is the IC50 concentration and D is the (Hill) slope.
Example 93B. Tritiated Compound Binding to Membranes Isolated from Cells that Heterologous Express hNav1.7 and the β1 Subunit
Following the procedure described in Example 93A, and making modifications as required to: centrifuge supernatants at 100000×g instead of 10000×g; re-suspend pellets in a buffer containing 0.01% BSA in addition to 100 mM NaCl, 20 mM Tris HCl, pH 7.4 buffer, and 1% v/v proteasome inhibitors; and storing membranes at −80° C. in single use aliquots instead of pooled. […]
Target sequence in this assay (Q15858 whole entry, looked up): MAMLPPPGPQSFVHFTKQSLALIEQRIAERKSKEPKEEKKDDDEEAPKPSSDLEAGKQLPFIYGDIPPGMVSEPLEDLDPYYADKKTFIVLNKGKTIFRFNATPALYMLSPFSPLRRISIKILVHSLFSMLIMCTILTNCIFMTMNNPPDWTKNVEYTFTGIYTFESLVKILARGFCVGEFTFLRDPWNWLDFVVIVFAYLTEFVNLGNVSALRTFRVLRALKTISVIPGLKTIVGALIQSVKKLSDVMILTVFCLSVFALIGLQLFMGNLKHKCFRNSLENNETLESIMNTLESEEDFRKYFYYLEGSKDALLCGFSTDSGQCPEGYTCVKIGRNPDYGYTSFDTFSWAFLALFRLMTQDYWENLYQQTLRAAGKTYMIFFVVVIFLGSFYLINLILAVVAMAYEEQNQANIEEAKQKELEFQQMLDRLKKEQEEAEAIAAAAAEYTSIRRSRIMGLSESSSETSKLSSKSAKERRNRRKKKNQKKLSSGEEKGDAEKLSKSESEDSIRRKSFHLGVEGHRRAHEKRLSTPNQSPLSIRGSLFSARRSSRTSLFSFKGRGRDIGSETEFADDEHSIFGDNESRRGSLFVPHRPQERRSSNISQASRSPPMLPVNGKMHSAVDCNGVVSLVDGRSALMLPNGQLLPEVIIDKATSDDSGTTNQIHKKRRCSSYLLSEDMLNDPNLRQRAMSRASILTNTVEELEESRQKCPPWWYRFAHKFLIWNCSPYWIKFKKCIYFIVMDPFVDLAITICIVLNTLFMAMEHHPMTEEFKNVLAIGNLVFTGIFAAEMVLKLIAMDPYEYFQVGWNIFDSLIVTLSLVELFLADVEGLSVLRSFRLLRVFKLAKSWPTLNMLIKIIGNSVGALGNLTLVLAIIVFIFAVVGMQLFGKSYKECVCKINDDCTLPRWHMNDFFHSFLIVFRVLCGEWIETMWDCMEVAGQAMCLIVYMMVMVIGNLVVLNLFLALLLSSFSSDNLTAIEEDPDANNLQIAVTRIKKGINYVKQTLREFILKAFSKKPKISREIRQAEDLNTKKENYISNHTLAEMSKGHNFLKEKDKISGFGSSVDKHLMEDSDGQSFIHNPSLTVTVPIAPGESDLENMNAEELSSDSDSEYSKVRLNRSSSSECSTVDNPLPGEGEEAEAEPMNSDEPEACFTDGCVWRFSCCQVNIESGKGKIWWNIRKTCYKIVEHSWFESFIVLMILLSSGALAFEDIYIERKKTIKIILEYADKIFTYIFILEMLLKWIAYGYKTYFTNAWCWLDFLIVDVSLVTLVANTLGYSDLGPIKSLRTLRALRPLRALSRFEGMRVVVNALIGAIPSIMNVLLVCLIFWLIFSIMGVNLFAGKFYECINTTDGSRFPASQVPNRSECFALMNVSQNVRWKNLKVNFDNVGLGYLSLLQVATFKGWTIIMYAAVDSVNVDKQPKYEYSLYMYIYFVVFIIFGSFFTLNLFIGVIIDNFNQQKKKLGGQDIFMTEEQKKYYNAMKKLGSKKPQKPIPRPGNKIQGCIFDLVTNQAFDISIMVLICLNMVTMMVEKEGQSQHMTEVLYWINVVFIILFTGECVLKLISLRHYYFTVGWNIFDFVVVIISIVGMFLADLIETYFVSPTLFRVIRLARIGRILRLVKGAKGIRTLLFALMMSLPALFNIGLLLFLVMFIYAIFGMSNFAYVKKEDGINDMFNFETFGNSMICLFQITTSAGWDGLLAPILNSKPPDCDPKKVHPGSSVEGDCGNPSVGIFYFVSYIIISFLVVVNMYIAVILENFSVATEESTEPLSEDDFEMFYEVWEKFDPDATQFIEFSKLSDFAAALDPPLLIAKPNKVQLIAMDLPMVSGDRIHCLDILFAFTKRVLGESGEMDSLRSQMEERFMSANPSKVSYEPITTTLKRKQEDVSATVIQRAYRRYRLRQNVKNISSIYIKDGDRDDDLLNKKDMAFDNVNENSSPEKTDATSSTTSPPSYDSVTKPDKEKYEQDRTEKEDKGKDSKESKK
Target sequence in this assay (Q07699 whole entry partner, looked up): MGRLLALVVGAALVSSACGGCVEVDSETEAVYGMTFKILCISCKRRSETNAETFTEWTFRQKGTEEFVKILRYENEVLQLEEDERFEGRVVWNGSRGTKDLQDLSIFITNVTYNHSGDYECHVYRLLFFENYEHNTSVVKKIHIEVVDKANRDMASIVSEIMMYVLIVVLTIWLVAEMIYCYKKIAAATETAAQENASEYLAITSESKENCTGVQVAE

hNav1.7 [2] = target: T1, hNav1.7; experiment: Electrophysiological assay (EP), voltage clamp on Syncropatch 384PE, CHO cells stably expressing Nav1.7; type: cell-based; conditions: holding potential −50 mV, 7.5 min compound incubation, read-out: EP_SP hNav1.7 EVO IC50
Text: Example 93C. Electrophysiological Assay (EP) (In Vitro Assay)
Patch voltage clamp electrophysiology allows for the direct measurement and quantification of block of voltage-gated sodium channels (NaV's), and allows the determination of the time- and voltage-dependence of block which has been interpreted as differential binding to the resting, open, and inactivated states of the sodium channel (Hille, B., Journal of General Physiology (1977), 69: 497-515).
The following voltage clamp electrophysiology studies are performed on representative compounds using cells heterologously expressing Nav1.7 or Nav1.5 channels. cDNAsfor Nav1.7 (NM_002977) and Nav1.5 (AC137587) are stably expressed in Chinese Hamstr Ovary (CHO) cells and CHL (Chinese Hamster Lung) cells respectively. Sodium currents are measured in the whole-cell configuration using Syncropatch 384PE (Nanlon Technologies, Germany). 1NPC®-384 chips with custom medium resistance and single hole mode are used. Internal solution consists of (in mM): […], 10 […], 20 EGTA, and 10 Hepes (pH adjusted to 7.2); and external solution contains (in mM): 60 NMDG, 80 NaCl, 4 KCl, 1 MgCl2, 2 CaCl2, 2 D-Glucose monohydrate, 10 Hepes (pH adjusted to 7.4 with NaOH).
After system flushing, testing compounds are dissolved in external solution containing 0.1% Pluronic F-127. The chip is moved into the measuring head and the instrument primes the chip with external and internal solutions. 10 μl cells are added to the chip from a cell hotel, and a negative pressure of −50 mBar is applied to form a seal. Following treatment with seal enhancer solution and wash-off with external solution, negative pressure of −250 mbar is applied for 1 second to achieve the whole-cell configuration, followed by three washing steps in external solution. 20 μl of compounds is added to 40 μl in each well (1:3 dilution of compounds), and after mixing, 20 μl is removed so the volume is retained at 40 μl. After approximately 13 minutes recordings, 20 μl/well of 2 uM TTX, or 333 uM Tetracaine (for Nav1.5) is added to achieve full block.
For voltage protocol, an holding potential of −50 mV is applied during the whole experiment. A depolarizing step is applied to −10 mV for 10 ms, followed by a hyperpolarization step to −150 mV for 20 ms to allow channel recovery from inactivation. A second depolarizing step is applied from −150 mV to −10 mV for 10 ms, where currents are measured to derive blocking effects of compounds. Inhibition is determined based on 7.5 min of compound incubation.
Target sequence in this assay (Q15858 other isoform, or with tags, fused parts or gaps): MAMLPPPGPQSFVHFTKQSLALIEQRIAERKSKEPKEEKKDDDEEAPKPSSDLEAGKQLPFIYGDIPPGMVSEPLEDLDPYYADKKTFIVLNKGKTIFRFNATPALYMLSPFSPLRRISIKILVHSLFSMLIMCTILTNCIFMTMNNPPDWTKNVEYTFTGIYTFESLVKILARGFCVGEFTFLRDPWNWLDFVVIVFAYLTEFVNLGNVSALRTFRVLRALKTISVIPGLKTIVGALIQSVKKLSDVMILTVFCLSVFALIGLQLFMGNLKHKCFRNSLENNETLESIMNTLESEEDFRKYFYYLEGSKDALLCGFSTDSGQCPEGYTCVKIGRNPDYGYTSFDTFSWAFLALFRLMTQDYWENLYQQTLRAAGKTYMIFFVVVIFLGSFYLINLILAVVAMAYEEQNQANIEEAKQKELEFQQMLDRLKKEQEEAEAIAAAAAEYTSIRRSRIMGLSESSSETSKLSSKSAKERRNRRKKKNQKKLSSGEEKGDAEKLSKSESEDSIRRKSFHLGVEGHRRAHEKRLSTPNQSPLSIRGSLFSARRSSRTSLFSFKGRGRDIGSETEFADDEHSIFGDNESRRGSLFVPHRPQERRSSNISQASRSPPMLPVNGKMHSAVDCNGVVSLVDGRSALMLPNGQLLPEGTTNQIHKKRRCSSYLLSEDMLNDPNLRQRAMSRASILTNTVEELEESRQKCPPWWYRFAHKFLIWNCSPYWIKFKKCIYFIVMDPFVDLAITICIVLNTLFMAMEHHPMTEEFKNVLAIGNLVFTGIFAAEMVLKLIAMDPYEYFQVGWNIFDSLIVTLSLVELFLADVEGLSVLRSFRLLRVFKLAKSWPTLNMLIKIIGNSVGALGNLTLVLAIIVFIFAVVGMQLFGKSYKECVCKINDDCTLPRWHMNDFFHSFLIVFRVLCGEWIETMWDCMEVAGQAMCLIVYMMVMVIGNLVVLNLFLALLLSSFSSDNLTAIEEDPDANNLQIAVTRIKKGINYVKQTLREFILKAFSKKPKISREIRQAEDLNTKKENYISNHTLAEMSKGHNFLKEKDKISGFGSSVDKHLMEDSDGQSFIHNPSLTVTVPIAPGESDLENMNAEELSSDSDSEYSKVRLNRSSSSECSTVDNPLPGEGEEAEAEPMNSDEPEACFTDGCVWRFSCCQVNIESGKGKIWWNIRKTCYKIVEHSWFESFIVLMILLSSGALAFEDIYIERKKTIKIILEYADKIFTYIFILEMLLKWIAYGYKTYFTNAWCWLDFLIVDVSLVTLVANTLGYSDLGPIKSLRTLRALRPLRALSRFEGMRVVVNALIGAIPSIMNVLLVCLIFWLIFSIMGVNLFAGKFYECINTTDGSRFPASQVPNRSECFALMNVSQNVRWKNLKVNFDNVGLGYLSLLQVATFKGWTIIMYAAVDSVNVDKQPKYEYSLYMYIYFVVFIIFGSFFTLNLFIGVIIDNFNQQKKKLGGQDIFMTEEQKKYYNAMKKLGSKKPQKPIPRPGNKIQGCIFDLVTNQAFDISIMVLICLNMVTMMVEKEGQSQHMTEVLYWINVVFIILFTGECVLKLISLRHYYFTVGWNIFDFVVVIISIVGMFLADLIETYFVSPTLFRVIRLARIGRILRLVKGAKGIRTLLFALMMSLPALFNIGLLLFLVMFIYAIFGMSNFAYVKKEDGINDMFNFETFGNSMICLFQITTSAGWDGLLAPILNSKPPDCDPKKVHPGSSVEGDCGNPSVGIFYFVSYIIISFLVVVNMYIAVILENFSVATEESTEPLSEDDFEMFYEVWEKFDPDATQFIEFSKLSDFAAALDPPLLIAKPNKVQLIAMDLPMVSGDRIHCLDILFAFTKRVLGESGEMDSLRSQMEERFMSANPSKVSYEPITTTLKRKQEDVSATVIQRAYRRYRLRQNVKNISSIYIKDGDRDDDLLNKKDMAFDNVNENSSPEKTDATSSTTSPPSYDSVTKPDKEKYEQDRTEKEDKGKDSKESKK

Compound | IC50 (hNav1.7 [1]) | IC50 (hNav1.7 [2])
4-(((1S,2S,4S)-2-(azetidin-3-yl(methyl)amino)-4-(3-(trifluoromethyl)phenyl)cyclohexyl)oxy)-5-chloro-2-fluoro-N-(pyrimidin-4-yl)benzenesulfonamide [Example 80] | 0.39 nM | 0.317 nM
5-Chloro-4-(((1S,3R,4R,6R)-7,7-dichloro-4-(dimethylamino)-6-(3-(trifluoromethyl)-phenyl)bicyclo[4.1.0]heptan-3-yl)amino)-2-fluoro-N-(pyrimidin-4-yl)benzenesulfonamide [Example 53] | 46.2 nM | 1.86 nM
5-Chloro-4-(((3 S,4S,6S)-7,7-dichloro-4-(dimethylamino)-6-(3-(trifluoromethyl)phenyl)-bicyclo[4.1.0]heptan-3-yl)amino)-2-fluoro-N-(pyrimidin-4-yl)benzenesulfonamide [Example 52] | 2000 nM | 496 nM
CN(C)[C@@H]1C[C@](O)(c2cccc(C(F)(F)F)c2)CC[C@H]1Nc1cc(F)c(S(=O)(=O)Nc2ccncn2)cc1Cl (single isomer, unassigned) [Example 36, formate] | 309 nM | 144 nM
CN(C)[C@H]1C[C@](O)(c2cccc(C(F)(F)F)c2)CC[C@@H]1Nc1cc(F)c(S(=O)(=O)Nc2ccncn2)cc1Cl (single isomer, unassigned) [Example 37] | ≥ 2000 nM | 371 nM
CN(C)[C@@H]1C[C@@](O)(c2cccc(C(F)(F)F)c2)CC[C@H]1Nc1cc(F)c(S(=O)(=O)Nc2ccncn2)cc1Cl (single isomer, unassigned) [Example 38, formate] | ≥ 2000 nM | 9440 nM
CN(C)[C@H]1C[C@@H](c2ccccc2C(F)(F)F)CC[C@@H]1Nc1cc(F)c(S(=O)(=O)Nc2ccncn2)cc1Cl (single isomer, unassigned) [Example 77] | 643 nM | 211 nM
CN(C)[C@@H]1C[C@H](c2ccccc2C(F)(F)F)CC[C@H]1Nc1cc(F)c(S(=O)(=O)Nc2ccncn2)cc1Cl (single isomer, unassigned) [Example 78] | 12.2 nM | 1.37 nM
CN(C)[C@H]1C[C@@H](c2cccc(C(F)(F)F)c2)CC[C@@H]1N1C(=O)COc2cc(S(=O)(=O)Nc3ccncn3)c(F)cc21 [Example 1, 4-((1S,2S,4S)-2-(Dimethylamino)-4-(3-(trifluoromethyl)phenyl)cyclohexyl)-6-fluoro-3-oxo-N-(pyrimidin-4-yl)-3,4-dihydro-2H-benzo[b][1,4]oxazine-7-sulfonamide formate] | 18.8 nM | 3.13 nM
CN(C)[C@H]1C[C@@H](c2cccc(C(F)(F)F)c2)CC[C@@H]1N1CCOc2cc(S(=O)(=O)Nc3ccncn3)c(F)cc21 [Example 2, 4-((1S,2S,4S)-2-(Dimethylamino)-4-(3-(trifluoromethyl)phenyl)cyclohexyl)-6-fluoro-N-(pyrimidin-4-yl)-3,4-dihydro-2H-benzo[b][1,4]oxazine-7-sulfonamide formate] | 0.686 nM | 1.01 nM
CN(C)[C@H]1C[C@@H](c2cccc(C(F)(F)F)c2)CC[C@@H]1n1c(=O)oc2cc(S(=O)(=O)Nc3ccncn3)c(F)cc21 [Example 3, 3-((1S,2S,4S)-2-(Dimethylamino)-4-(3-(trifluoromethyl)phenyl)cyclohexyl)-5-fluoro-2-oxo-N-(pyrimidin-4-yl)-2,3-dihydrobenzo[d]oxazole-6-sulfonamide formate] | 83.1 nM | 26.2 nM
CN(C)[C@H]1C[C@@H](c2ccc(Cl)c(Cl)c2)CC[C@@H]1Nc1cc(F)c(S(=O)(=O)Nc2ccncn2)cc1Cl [Example 4, 5-Chloro-4-(((1S,2S,4S)-4-(3,4-dichlorophenyl)-2-(dimethylamino)cyclohexyl)amino)-2-fluoro-N-(pyrimidin-4-yl)benzenesulfonamide] | 1.2 nM | 0.305 nM
CN(C)[C@H]1C[C@@H](c2cccc(C(F)(F)F)c2)CC[C@@H]1Nc1cc(F)c(S(=O)(=O)Nc2ccncn2)cc1OC(F)F [Example 5, 5-(Difluoromethoxy)-4-(((1S,2S,4S)-2-(dimethylamino)-4-(3-(trifluoromethyl)phenyl)-cyclohexyl)amino)-2-fluoro-N-(pyrimidin-4-yl)benzenesulfonamide formate] | 1.37 nM | 0.519 nM
CN(C)[C@H]1C[C@@H](c2ccc(F)c(C(F)(F)F)c2)CC[C@@H]1Nc1cc(F)c(S(=O)(=O)Nc2ccncn2)cc1Cl [Example 6, 5-chloro-4-(((1S,2S,4S)-2-(dimethylamino)-4-(4-fluoro-3-(trifluoromethyl)phenyl)-cyclohexyl)amino)-2-fluoro-N-(pyrimidin-4-yl)benzenesulfonamide] | 0.791 nM | 0.765 nM
CN(C)[C@H]1C[C@@H](c2ccc(Cl)c(C(F)(F)F)c2)CC[C@@H]1Nc1cc(F)c(S(=O)(=O)Nc2ccncn2)cc1Cl [Example 7] | 0.52 nM | 0.327 nM
CN(C)[C@H]1C[C@@H](Cc2cccc(C(F)(F)F)c2)CC[C@@H]1Nc1cc(F)c(S(=O)(=O)Nc2ccncn2)cc1Cl [Example 8, 5-chloro-4-(((1S,2S,4R)-2-(dimethylamino)-4-(3-(trifluoromethyl)benzyl)cyclohexyl)amino)-2-fluoro-N-(pyrimidin-4-yl)benzenesulfonamide] | 6.45 nM | 0.991 nM
CN(C)[C@H]1C[C@@H](c2cccc(C(F)(F)F)c2)CC[C@@H]1Nc1ccc(S(=O)(=O)Nc2ccncn2)cc1F [Example 89, 4-(((1S,2S,4S)-2-(Dimethylamino)-4-(3-(trifluoromethyl)phenyl)cyclohexyl)amino)-3-fluoro-N-(pyrimidin-4-yl)benzenesulfonamide formate] | 12.4 nM | –
O=S(=O)(Nc1ccncn1)c1cc(Cl)c(O[C@H]2CC[C@H](c3cccc(C(F)(F)F)c3)C[C@@H]2N2CCC(O)C2)cc1F (stereo partly shown) [Example 90, formate] | – | 0.57 nM
